Laboratory results published in ChEMBL document CHEMBL5724914, “Linking interpersonal differences in gut microbiota composition and drug biotransformation activity” (2024).

Assays:
[1] = human gut metagenome, 24 h, 2 µM
[2] = (§1) The drug is tested on Z-026 corresponding to metagenome with ENA study accession number: PRJEB37062 and ENA sample accession number: ERS12561825 for biotransformation under anaerobic condition. The drug concentrations were measured over 9 timepoints collected between 0 and 24 hours of incubation by liquid-chromatography-coupled mass spectrometry (LC–MS); conditions: 2 µM
[3] = human gut metagenome, 24 h, 2 µM; remark: listed apart in the source
[4] = (§2) The drug is tested on WLS-007 corresponding to human gut metagenome with ENA study accession number: PRJEB37062 and ENA sample accession number: ERS12561742 for biotransformation under anaerobic condition. The drug concentrations were measured over 9 timepoints collected between 0 and 24 hours of incubation by liquid-chromatography-coupled mass spectrometry (LC–MS); conditions: 2 µM
[5] = as §2, with “WLS-310” for “WLS-007”, “ERS12561785” for “ERS12561742”; conditions: 2 µM
[6] = as §2, with “Z-025” for “WLS-007”, “rabbit” for “human”, “ERS12561824” for “ERS12561742”; conditions: 2 µM
[7] = human gut metagenome, 24 h, 2 µM; remark: listed apart in the source
[8] = as §2, with “Z-014” for “WLS-007”, “rat” for “human”, “ERS12561814” for “ERS12561742”; conditions: 2 µM
[9] = as §2, with “WLS-006” for “WLS-007”, “ERS12561741” for “ERS12561742”; conditions: 2 µM
[10] = as §2, with “Z-030” for “WLS-007”, “mouse” for “human”, “ERS12561829” for “ERS12561742”; conditions: 2 µM
[11] = human gut metagenome, 24 h, 2 µM; remark: listed apart in the source
[12] = human gut metagenome, 24 h, 2 µM; remark: listed apart in the source
[13] = as §1, with “Z-027” for “Z-026”, “ERS12561826” for “ERS12561825”; conditions: 2 µM
[14] = as §2, with “WLS-220” for “WLS-007”, “ERS12561769” for “ERS12561742”; conditions: 2 µM
[15] = as §2, with “WLS-027” for “WLS-007”, “ERS12561744” for “ERS12561742”; conditions: 2 µM
[16] = as §2, with “WLS-086” for “WLS-007”, “ERS12561752” for “ERS12561742”; conditions: 2 µM
[17] = human gut metagenome, 24 h, 2 µM; remark: listed apart in the source
[18] = as §1, with “Z-021” for “Z-026”, “ERS12561820” for “ERS12561825”; conditions: 2 µM
[19] = human gut metagenome, 24 h, 2 µM; remark: listed apart in the source
[20] = human gut metagenome, 24 h, 2 µM; remark: listed apart in the source
Further: call rule not given here.

For COc1ccc([C@@H]2Sc3ccccc3N(CCN(C)C)C(=O)[C@@H]2OC(C)=O)cc1 [DILTIAZEM], the “Bacterial Biotransformation” value [1] was “Compound metabolized”, the “Bacterial Biotransformation” value [2] was “Compound NOT metabolized” and the “Bacterial Biotransformation” value [3] was “Compound metabolized”. For the same compound, the “Bacterial Biotransformation” value [4] was “Compound NOT metabolized”, the “Bacterial Biotransformation” value [5] was “Compound metabolized” and the “Bacterial Biotransformation” value [6] was “Compound NOT metabolized”. For the same compound, the “Bacterial Biotransformation” value [7] was “Compound metabolized”, the “Bacterial Biotransformation” value [8] was “Compound NOT metabolized” and the “Bacterial Biotransformation” value [9] was “Compound metabolized”. The “Bacterial Biotransformation” value [10] was “Compound NOT metabolized”, the “Bacterial Biotransformation” value [11] was “Compound metabolized” and the “Bacterial Biotransformation” value [12] was “Compound metabolized”. For the same compound, the “Bacterial Biotransformation” value [13] was “Compound NOT metabolized”, the “Bacterial Biotransformation” value [14] was “Compound metabolized” and the “Bacterial Biotransformation” value [15] was “Compound metabolized”. The “Bacterial Biotransformation” value [16] was “Compound metabolized”, the “Bacterial Biotransformation” value [17] was “Compound metabolized” and the “Bacterial Biotransformation” value [18] was “Compound NOT metabolized”. The “Bacterial Biotransformation” value [19] was “Compound metabolized” and the “Bacterial Biotransformation” value [20] was “Compound metabolized”.

For OCCN(CCO)c1nc(N2CCCCC2)c2nc(N(CCO)CCO)nc(N3CCCCC3)c2n1 [DIPYRIDAMOLE], the “Bacterial Biotransformation” value [1] was “Compound NOT metabolized”, the “Bacterial Biotransformation” value [2] was “Compound metabolized” and the “Bacterial Biotransformation” value [3] was “Compound metabolized”. For the same compound, the “Bacterial Biotransformation” value [4] was “Compound metabolized”, the “Bacterial Biotransformation” value [5] was “Compound metabolized” and the “Bacterial Biotransformation” value [6] was “Compound NOT metabolized”. The “Bacterial Biotransformation” value [7] was “Compound metabolized”, the “Bacterial Biotransformation” value [8] was “Compound NOT metabolized” and the “Bacterial Biotransformation” value [9] was “Compound NOT metabolized”. The “Bacterial Biotransformation” value [10] was “Compound NOT metabolized”, the “Bacterial Biotransformation” value [11] was “Compound metabolized” and the “Bacterial Biotransformation” value [12] was “Compound metabolized”. For the same compound, the “Bacterial Biotransformation” value [13] was “Compound metabolized”, the “Bacterial Biotransformation” value [14] was “Compound metabolized” and the “Bacterial Biotransformation” value [15] was “Compound metabolized”. The “Bacterial Biotransformation” value [16] was “Compound metabolized”, the “Bacterial Biotransformation” value [17] was “Compound metabolized” and the “Bacterial Biotransformation” value [18] was “Compound metabolized”. For the same compound, the “Bacterial Biotransformation” value [19] was “Compound metabolized” and the “Bacterial Biotransformation” value [20] was “Compound metabolized”.

In the case of CN(C)CCOC(C)(c1ccccc1)c1ccccn1.O=C(O)CCC(=O)O (stereo not given) [DOXYLAMINE SUCCINATE], the “Bacterial Biotransformation” value [1] is reported as “Compound NOT metabolized”, the “Bacterial Biotransformation” value [2] is reported as “Compound NOT metabolized” and the “Bacterial Biotransformation” value [3] is reported as “Compound NOT metabolized”. The “Bacterial Biotransformation” value [4] was “Compound NOT metabolized”, the “Bacterial Biotransformation” value [5] was “Compound NOT metabolized” and the “Bacterial Biotransformation” value [6] was “Compound NOT metabolized”. For the same compound, the “Bacterial Biotransformation” value [7] was “Compound NOT metabolized”, the “Bacterial Biotransformation” value [8] was “Compound NOT metabolized” and the “Bacterial Biotransformation” value [9] was “Compound NOT metabolized”. For the same compound, the “Bacterial Biotransformation” value [10] was “Compound NOT metabolized”, the “Bacterial Biotransformation” value [11] was “Compound NOT metabolized” and the “Bacterial Biotransformation” value [12] was “Compound NOT metabolized”. For the same compound, the “Bacterial Biotransformation” value [13] was “Compound NOT metabolized”, the “Bacterial Biotransformation” value [14] was “Compound NOT metabolized” and the “Bacterial Biotransformation” value [15] was “Compound NOT metabolized”. For the same compound, the “Bacterial Biotransformation” value [16] was “Compound NOT metabolized”, the “Bacterial Biotransformation” value [17] was “Compound NOT metabolized” and the “Bacterial Biotransformation” value [18] was “Compound NOT metabolized”. For the same compound, the “Bacterial Biotransformation” value [19] was “Compound NOT metabolized” and the “Bacterial Biotransformation” value [20] was “Compound NOT metabolized”.

For Br.CN1CCC[C@@H]1Cc1c[nH]c2ccc(CCS(=O)(=O)c3ccccc3)cc12 [ELETRIPTAN HYDROBROMIDE], the “Bacterial Biotransformation” value [1] was “Compound metabolized”, the “Bacterial Biotransformation” value [2] was “Compound NOT metabolized” and the “Bacterial Biotransformation” value [3] was “Compound metabolized”. The “Bacterial Biotransformation” value [4] was “Compound metabolized”, the “Bacterial Biotransformation” value [5] was “Compound metabolized” and the “Bacterial Biotransformation” value [6] was “Compound NOT metabolized”. For the same compound, the “Bacterial Biotransformation” value [7] was “Compound NOT metabolized”, the “Bacterial Biotransformation” value [8] was “Compound NOT metabolized” and the “Bacterial Biotransformation” value [9] was “Compound NOT metabolized”. The “Bacterial Biotransformation” value [10] was “Compound NOT metabolized”, the “Bacterial Biotransformation” value [11] was “Compound metabolized” and the “Bacterial Biotransformation” value [12] was “Compound metabolized”. For the same compound, the “Bacterial Biotransformation” value [13] was “Compound NOT metabolized”, the “Bacterial Biotransformation” value [14] was “Compound metabolized” and the “Bacterial Biotransformation” value [15] was “Compound NOT metabolized”. For the same compound, the “Bacterial Biotransformation” value [16] was “Compound metabolized”, the “Bacterial Biotransformation” value [17] was “Compound metabolized” and the “Bacterial Biotransformation” value [18] was “Compound NOT metabolized”. The “Bacterial Biotransformation” value [19] was “Compound metabolized” and the “Bacterial Biotransformation” value [20] was “Compound NOT metabolized”.

With CCOc1ccc2nc(S(N)(=O)=O)sc2c1 [ETHOXZOLAMIDE] the “Bacterial Biotransformation” value [1] was “Compound NOT metabolized”, the “Bacterial Biotransformation” value [2] was “Compound NOT metabolized” and the “Bacterial Biotransformation” value [3] was “Compound NOT metabolized”. For the same compound, the “Bacterial Biotransformation” value [4] was “Compound NOT metabolized”, the “Bacterial Biotransformation” value [5] was “Compound NOT metabolized” and the “Bacterial Biotransformation” value [6] was “Compound NOT metabolized”. The “Bacterial Biotransformation” value [7] was “Compound NOT metabolized”, the “Bacterial Biotransformation” value [8] was “Compound NOT metabolized” and the “Bacterial Biotransformation” value [9] was “Compound NOT metabolized”. For the same compound, the “Bacterial Biotransformation” value [10] was “Compound NOT metabolized”, the “Bacterial Biotransformation” value [11] was “Compound NOT metabolized” and the “Bacterial Biotransformation” value [12] was “Compound NOT metabolized”. The “Bacterial Biotransformation” value [13] was “Compound NOT metabolized”, the “Bacterial Biotransformation” value [14] was “Compound NOT metabolized” and the “Bacterial Biotransformation” value [15] was “Compound NOT metabolized”. For the same compound, the “Bacterial Biotransformation” value [16] was “Compound metabolized”, the “Bacterial Biotransformation” value [17] was “Compound NOT metabolized” and the “Bacterial Biotransformation” value [18] was “Compound metabolized”. For the same compound, the “Bacterial Biotransformation” value [19] was “Compound metabolized” and the “Bacterial Biotransformation” value [20] was “Compound NOT metabolized”.

For CCc1cccc2c3c([nH]c12)C(CC)(CC(=O)O)OCC3 (stereo not given) [ETODOLAC], the “Bacterial Biotransformation” value [1] was “Compound metabolized”, the “Bacterial Biotransformation” value [2] was “Compound NOT metabolized” and the “Bacterial Biotransformation” value [3] was “Compound metabolized”. For the same compound, the “Bacterial Biotransformation” value [4] was “Compound metabolized”, the “Bacterial Biotransformation” value [5] was “Compound metabolized” and the “Bacterial Biotransformation” value [6] was “Compound NOT metabolized”. The “Bacterial Biotransformation” value [7] was “Compound metabolized”, the “Bacterial Biotransformation” value [8] was “Compound NOT metabolized” and the “Bacterial Biotransformation” value [9] was “Compound metabolized”. For the same compound, the “Bacterial Biotransformation” value [10] was “Compound NOT metabolized”, the “Bacterial Biotransformation” value [11] was “Compound metabolized” and the “Bacterial Biotransformation” value [12] was “Compound metabolized”. For the same compound, the “Bacterial Biotransformation” value [13] was “Compound NOT metabolized”, the “Bacterial Biotransformation” value [14] was “Compound metabolized” and the “Bacterial Biotransformation” value [15] was “Compound metabolized”. For the same compound, the “Bacterial Biotransformation” value [16] was “Compound metabolized”, the “Bacterial Biotransformation” value [17] was “Compound metabolized” and the “Bacterial Biotransformation” value [18] was “Compound NOT metabolized”. For the same compound, the “Bacterial Biotransformation” value [19] was “Compound metabolized” and the “Bacterial Biotransformation” value [20] was “Compound metabolized”.

With CC(=O)OCC(CCn1cnc2cnc(N)nc21)COC(C)=O [FAMCICLOVIR] the “Bacterial Biotransformation” value [1] was “Compound metabolized”, the “Bacterial Biotransformation” value [2] was “Compound metabolized” and the “Bacterial Biotransformation” value [3] was “Compound metabolized”. The “Bacterial Biotransformation” value [4] was “Compound metabolized”, the “Bacterial Biotransformation” value [5] was “Compound metabolized” and the “Bacterial Biotransformation” value [6] was “Compound metabolized”. For the same compound, the “Bacterial Biotransformation” value [7] was “Compound metabolized”, the “Bacterial Biotransformation” value [8] was “Compound metabolized” and the “Bacterial Biotransformation” value [9] was “Compound metabolized”. The “Bacterial Biotransformation” value [10] was “Compound NOT metabolized”, the “Bacterial Biotransformation” value [11] was “Compound metabolized” and the “Bacterial Biotransformation” value [12] was “Compound metabolized”. The “Bacterial Biotransformation” value [13] was “Compound NOT metabolized”, the “Bacterial Biotransformation” value [14] was “Compound metabolized” and the “Bacterial Biotransformation” value [15] was “Compound metabolized”. For the same compound, the “Bacterial Biotransformation” value [16] was “Compound metabolized”, the “Bacterial Biotransformation” value [17] was “Compound metabolized” and the “Bacterial Biotransformation” value [18] was “Compound NOT metabolized”. For the same compound, the “Bacterial Biotransformation” value [19] was “Compound metabolized” and the “Bacterial Biotransformation” value [20] was “Compound metabolized”.

In the case of CC(C)(C)NC(=O)[C@H]1CC[C@H]2[C@@H]3CC[C@H]4NC(=O)C=C[C@]4(C)[C@H]3CC[C@]12C [FINASTERIDE], the “Bacterial Biotransformation” value [1] is reported as “Compound metabolized”, the “Bacterial Biotransformation” value [2] is reported as “Compound metabolized” and the “Bacterial Biotransformation” value [3] is reported as “Compound metabolized”. The “Bacterial Biotransformation” value [4] was “Compound NOT metabolized”, the “Bacterial Biotransformation” value [5] was “Compound metabolized” and the “Bacterial Biotransformation” value [6] was “Compound NOT metabolized”. For the same compound, the “Bacterial Biotransformation” value [7] was “Compound metabolized”, the “Bacterial Biotransformation” value [8] was “Compound NOT metabolized” and the “Bacterial Biotransformation” value [9] was “Compound metabolized”. For the same compound, the “Bacterial Biotransformation” value [10] was “Compound NOT metabolized”, the “Bacterial Biotransformation” value [11] was “Compound metabolized” and the “Bacterial Biotransformation” value [12] was “Compound metabolized”. The “Bacterial Biotransformation” value [13] was “Compound metabolized”, the “Bacterial Biotransformation” value [14] was “Compound metabolized” and the “Bacterial Biotransformation” value [15] was “Compound metabolized”. The “Bacterial Biotransformation” value [16] was “Compound metabolized”, the “Bacterial Biotransformation” value [17] was “Compound metabolized” and the “Bacterial Biotransformation” value [18] was “Compound NOT metabolized”. For the same compound, the “Bacterial Biotransformation” value [19] was “Compound metabolized” and the “Bacterial Biotransformation” value [20] was “Compound metabolized”.
